# Molecular target: α-glucosidase
# Assay: α-glucosidase inhibition assay (PNPG substrate)
# Format: biochemical
# Details: pH 6.8, 37 °C, 10 min, 0.01 M PNPG substrate, 1 U/mL enzyme; means ± SD of three independent replicates; read-out: α-Glucosidase Inhibition Contstant (IC50)
# Procedure: The a-glucosidase inhibition assay was performed according to a slightly modified method of Pierre et al.. α-Glucosidase was purchased from Sigma (San Francisco, CA, USA, No. M0035-15). The inhibition was measured spectrophotometrically at pH 6.8 and at 37 °C for 10 min, using 0.01 M p-nitrophenyl a-D-glucopyranoside (PNPG) from Sigma (No. M0103) as a substrate and 1 U/mL of enzyme, in 0.067 M KH2PO4-Na2HPO4 buffer. […] The increment in absorption at 410 nm due to the hydrolysis of PNPG by α-glucosidase was monitored continuously with an automatic multi-functional microplate reader.
row,IC50 [µM],Compound
1,21.4 ± 2.9,"CCCCCC1CCCCCCCCCC(=O)OC2C(OC(C)C(OC3OC(C)C(OC4OC(C)C(OC(=O)C(C)CC)C(OC(=O)C=Cc5ccccc5)C4O)C(OC4OC(C)C(O)C(O)C4O)C3OC(=O)C(C)CC)C2O)OC2C(O1)OC(CO)C(O)C2O [Compound 1, (S)-jalapinolic acid 11-O-α-L-rhamnopyranosyl-(1→3)-O-[3-O-trans-cinnamoyl-4-O-(S)-2-methyl-butyryl-α-L-rhamnopyranosyl-(1→4)]-O-[2-O-(S)-2-methylbutyryl]-α-L-rhamnopyranosyl-(1→4)-O-α-L-rhamnopyranosyl-(1→2)-O-β-D-glucopyranoside, intramolecular 1,2''-ester]"
2,26.2 ± 4.6,"CCCCCC1CCCCCCCCCC(=O)OC2C(OC(C)C(OC3OC(C)C(OC4OC(C)C(OC(=O)C(C)CC)C(OC(=O)C=Cc5ccccc5)C4O)C(OC4OC(C)C(O)C(O)C4O)C3OC(=O)CCC)C2O)OC2C(O1)OC(CO)C(O)C2O (stereo not shown) [Compound 2, Cairicoside II]"
3,30.4 ± 3.9,"CCCCCCCC(=O)OC1C(OC2C(C)OC3OC4C(OC(CCCCC)CCCCCCCCCC(=O)OC3C2O)OC(CO)C(O)C4O)OC(C)C(OC2OC(C)C(OC(=O)C(C)CC)C(OC(=O)C=Cc3ccccc3)C2O)C1OC1OC(C)C(O)C(O)C1O (stereo not shown) [Compound 3, Cairicoside III]"
4,28.9 ± 1.4,"CCCCCCCCCC(=O)OC1C(OC2C(C)OC3OC4C(OC(CCCCC)CCCCCCCCCC(=O)OC3C2O)OC(CO)C(O)C4O)OC(C)C(OC2OC(C)C(OC(=O)C(C)CC)C(OC(=O)C=Cc3ccccc3)C2O)C1OC1OC(C)C(O)C(O)C1O (stereo not shown) [Compound 4, Cairicoside IV]"

# Source: PMC6272348, “Four New Pentasaccharide Resin Glycosides from Ipomoea cairica with Strong α-Glucosidase Inhibitory Activity” (Molecules, 2015)
